Tests used:
Assay in all cases: relative viability (nuclei count vs DMSO), 5 days (fraction); higher = more cells survive
201T = tested on: 201T
How it was run: (§1)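 One day after seeding in 1536-well plates, lung cancer cell lines were dosed by pin tool. Dosing was either single-drug or a fixed anchor-drug dose plus five library-drug doses (not always all listed) in √10 steps. After 5 days, nuclei were stained in one fix-and-stain step and counted on 4× images, and relative viability is the nuclei count of treated wells over that of vehicle wells, given as the median of duplicate plates.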

BEN = tested on: BEN
How it was run: as §1

CAL-12T = tested on: CAL-12T
How it was run: as §1

HCC-78 = tested on: HCC-78
How it was run: as §1

HOP-62 = tested on: HOP-62
How it was run: as §1

LCLC-97TM1 = tested on: LCLC-97TM1
How it was run: as §1

LOU-NH91 = tested on: LOU-NH91
How it was run: as §1

NCI-H1355 = tested on: NCI-H1355
How it was run: as §1

NCI-H1395 = tested on: NCI-H1395
How it was run: as §1

NCI-H1651 = tested on: NCI-H1651
How it was run: as §1

NCI-H1793 = tested on: NCI-H1793
How it was run: as §1

NCI-H1915 = tested on: NCI-H1915
How it was run: as §1

NCI-H1944 = tested on: NCI-H1944
How it was run: as §1

NCI-H2126 = tested on: NCI-H2126
How it was run: as §1

NCI-H2347 = tested on: NCI-H2347
How it was run: as §1

NCI-H3122 = tested on: NCI-H3122
How it was run: as §1

NCI-H322M = tested on: NCI-H322M
How it was run: as §1

NCI-H441 = tested on: NCI-H441
How it was run: as §1

NCI-H650 = tested on: NCI-H650
How it was run: as §1

NCI-H838 = tested on: NCI-H838
How it was run: as §1

SK-LU-1 = tested on: SK-LU-1
How it was run: as §1

SW 1573 = tested on: SW 1573
How it was run: as §1

`CCNC(=O)c1noc(-c2cc(C(C)C)c(O)cc2O)c1-c1ccc(CN2CCOCC2)cc1` [Luminespib] + CC(=O)Nc1cccc(-n2c(=O)n(C3CC3)c(=O)c3c(Nc4ccc(I)cc4F)n(C)c(=O)c(C)c32)c1 [Trametinib] (partner 0.02 µM) showed a relative viability (201T; first compound 0.002 µM) of 0.667, a relative viability (201T; first compound 0.006325 µM) of 0.706 and a relative viability (201T; first compound 0.02 µM) of 0.675. It also gave a relative viability (201T; first compound 0.06325 µM) of 0.67, a relative viability (201T; first compound 0.2 µM) of 0.674 and a relative viability (BEN; first compound 0.002 µM) of 1.11. For the same compound, the relative viability (BEN; first compound 0.006325 µM) was 1, the relative viability (BEN; first compound 0.02 µM) was 0.481 and the relative viability (BEN; first compound 0.06325 µM) was 0.748. For the same compound, the relative viability (BEN; first compound 0.2 µM) was 0.341, the relative viability (CAL-12T; first compound 0.002 µM) was 0.321 and the relative viability (CAL-12T; first compound 0.006325 µM) was 0.356. The relative viability (CAL-12T; first compound 0.02 µM) was 0.162, the relative viability (CAL-12T; first compound 0.06325 µM) was 0.111 and the relative viability (CAL-12T; first compound 0.2 µM) was 0.117. The relative viability (HCC-78; first compound 0.002 µM) was 0.74, the relative viability (HCC-78; first compound 0.006325 µM) was 0.61 and the relative viability (HCC-78; first compound 0.02 µM) was 0.572. It also gave a relative viability (HCC-78; first compound 0.06325 µM) of 0.874, a relative viability (HCC-78; first compound 0.2 µM) of 0.512 and a relative viability (HOP-62; first compound 0.002 µM) of 0.37. The relative viability (HOP-62; first compound 0.006325 µM) was 0.351, the relative viability (HOP-62; first compound 0.02 µM) was 0.311 and the relative viability (HOP-62; first compound 0.06325 µM) was 0.309. The relative viability (HOP-62; first compound 0.2 µM) was 0.183, the relative viability (LCLC-97TM1; first compound 0.002 µM) was 0.233 and the relative viability (LCLC-97TM1; first compound 0.006325 µM) was 0.186. It also gave a relative viability (LCLC-97TM1; first compound 0.06325 µM) of 0.221, a relative viability (LCLC-97TM1; first compound 0.2 µM) of 0.166 and a relative viability (LOU-NH91; first compound 0.002 µM) of 0.807. It also gave a relative viability (LOU-NH91; first compound 0.006325 µM) of 0.775, a relative viability (LOU-NH91; first compound 0.02 µM) of 0.6 and a relative viability (LOU-NH91; first compound 0.06325 µM) of 0.417. It also gave a relative viability (LOU-NH91; first compound 0.2 µM) of 0.385, a relative viability (NCI-H1355; first compound 0.002 µM) of 0.421 and a relative viability (NCI-H1355; first compound 0.006325 µM) of 0.445. The relative viability (NCI-H1355; first compound 0.02 µM) was 0.265, the relative viability (NCI-H1355; first compound 0.06325 µM) was 0.396 and the relative viability (NCI-H1355; first compound 0.2 µM) was 0.158. The relative viability (NCI-H1395; first compound 0.002 µM) was 0.994, the relative viability (NCI-H1395; first compound 0.006325 µM) was 1.05 and the relative viability (NCI-H1395; first compound 0.02 µM) was 0.827. The relative viability (NCI-H1395; first compound 0.06325 µM) was 0.35, the relative viability (NCI-H1395; first compound 0.2 µM) was 0.379 and the relative viability (NCI-H1651; first compound 0.002 µM) was 0.787. The relative viability (NCI-H1651; first compound 0.006325 µM) was 0.798, the relative viability (NCI-H1651; first compound 0.02 µM) was 0.634 and the relative viability (NCI-H1651; first compound 0.06325 µM) was 0.754. The relative viability (NCI-H1651; first compound 0.2 µM) was 0.609, the relative viability (NCI-H1793; first compound 0.002 µM) was 0.428 and the relative viability (NCI-H1793; first compound 0.006325 µM) was 0.333. For the same compound, the relative viability (NCI-H1793; first compound 0.02 µM) was 0.357, the relative viability (NCI-H1793; first compound 0.06325 µM) was 0.187 and the relative viability (NCI-H1793; first compound 0.2 µM) was 0.186. It also gave a relative viability (NCI-H1915; first compound 0.002 µM) of 0.316, a relative viability (NCI-H1915; first compound 0.006325 µM) of 0.287 and a relative viability (NCI-H1915; first compound 0.02 µM) of 0.244. The relative viability (NCI-H1915; first compound 0.06325 µM) was 0.254, the relative viability (NCI-H1915; first compound 0.2 µM) was 0.161 and the relative viability (NCI-H1944; first compound 0.002 µM) was 0.467. For the same compound, the relative viability (NCI-H1944; first compound 0.006325 µM) was 0.4, the relative viability (NCI-H1944; first compound 0.02 µM) was 0.387 and the relative viability (NCI-H1944; first compound 0.06325 µM) was 0.405. For the same compound, the relative viability (NCI-H1944; first compound 0.2 µM) was 0.354, the relative viability (NCI-H2126; first compound 0.002 µM) was 0.608 and the relative viability (NCI-H2126; first compound 0.006325 µM) was 0.608. For the same compound, the relative viability (NCI-H2126; first compound 0.06325 µM) was 0.667, the relative viability (NCI-H2126; first compound 0.2 µM) was 0.599 and the relative viability (NCI-H2347; first compound 0.002 µM) was 0.29. For the same compound, the relative viability (NCI-H2347; first compound 0.006325 µM) was 0.307, the relative viability (NCI-H2347; first compound 0.02 µM) was 0.269 and the relative viability (NCI-H2347; first compound 0.06325 µM) was 0.254. For the same compound, the relative viability (NCI-H2347; first compound 0.2 µM) was 0.294, the relative viability (NCI-H3122; first compound 0.002 µM) was 0.179 and the relative viability (NCI-H3122; first compound 0.006325 µM) was 0.27. For the same compound, the relative viability (NCI-H3122; first compound 0.02 µM) was 0.141, the relative viability (NCI-H3122; first compound 0.06325 µM) was 0.242 and the relative viability (NCI-H3122; first compound 0.2 µM) was 0.186. The relative viability (NCI-H322M; first compound 0.002 µM) was 0.494, the relative viability (NCI-H322M; first compound 0.006325 µM) was 0.535 and the relative viability (NCI-H322M; first compound 0.02 µM) was 0.453. The relative viability (NCI-H322M; first compound 0.06325 µM) was 0.456, the relative viability (NCI-H322M; first compound 0.2 µM) was 0.407 and the relative viability (NCI-H441; first compound 0.002 µM) was 0.555. The relative viability (NCI-H441; first compound 0.006325 µM) was 0.465, the relative viability (NCI-H441; first compound 0.02 µM) was 0.271 and the relative viability (NCI-H441; first compound 0.06325 µM) was 0.0929. For the same compound, the relative viability (NCI-H441; first compound 0.2 µM) was 0.11, the relative viability (NCI-H650; first compound 0.002 µM) was 1.06 and the relative viability (NCI-H650; first compound 0.006325 µM) was 0.881. The relative viability (NCI-H650; first compound 0.02 µM) was 0.629, the relative viability (NCI-H650; first compound 0.06325 µM) was 0.262 and the relative viability (NCI-H650; first compound 0.2 µM) was 0.086. For the same compound, the relative viability (NCI-H838; first compound 0.002 µM) was 0.582, the relative viability (NCI-H838; first compound 0.006325 µM) was 0.474 and the relative viability (NCI-H838; first compound 0.02 µM) was 0.294. It also gave a relative viability (NCI-H838; first compound 0.06325 µM) of 0.093, a relative viability (NCI-H838; first compound 0.2 µM) of 0.134 and a relative viability (SK-LU-1; first compound 0.002 µM) of 0.478. The relative viability (SK-LU-1; first compound 0.006325 µM) was 0.371, the relative viability (SK-LU-1; first compound 0.02 µM) was 0.314 and the relative viability (SK-LU-1; first compound 0.06325 µM) was 0.178. For the same compound, the relative viability (SK-LU-1; first compound 0.2 µM) was 0.185, the relative viability (SW 1573; first compound 0.002 µM) was 0.604 and the relative viability (SW 1573; first compound 0.006325 µM) was 0.483. The relative viability (SW 1573; first compound 0.02 µM) was 0.198, the relative viability (SW 1573; first compound 0.06325 µM) was 0.105 and the relative viability (SW 1573; first compound 0.2 µM) was 0.096.

— the supplement of paper PMC10307832
